Assays:
[1] = tested on: biofilm of fungal isolates (Paecilomyces lilacinus, Trichoderma spp.) and bacterial isolates (Alcaligenes species, Sphingomonas species); assay: Remediation: 96-well plate mixed biofilm treated with biocides, resazurin readout; type: cell-based; settings: for Efficacy level (Effective Concentration with 6 ppm of PHMB): with 6 ppm PHMB, biofilm treated 24 hours at 28° C., resazurin; for Result (effect of adjuvant on DBNPA efficacy against biofilm): adjuvant 50 ppm with DBNPA in presence of PHMB
Procedure: Fungal isolates of common fungi found in swimming pools such as Paecilomyces lilacinus and Trichoderma spp. and bacterial isolates also common to swimming pools such as, i.e. Alcaligenes species and Sphingomonas species were used to construct a biofilm, which was treated with biocides, using the following method: […] An aliquot of the spore suspension was added to each well of a 96-well plate, except column 12. The plates were incubated for 18 hours at 28° C. Also, a mixture of bacterial suspension was prepared at a concentration of 2.34×10^5/ml in 20% […] broth. An aliquot of bacterial suspension was added to each well of the 96-well plate, where fungal spores were placed. The plates were incubated for 24 hours at 28° C. […] An aliquot of the chemical solution was added to each well of column 1 and 2. The solution was mixed in each well of column 2 and an aliquot of solution was transferred from each well of column 2 to each well of column 3. The dilution was repeated to column 11 and the solution from each well of column 11 after dilution was discarded. The culture broth was removed from each well of the incubated plate. An aliquot of 0.8% sodium chloride solution was added to each well, except column 12. The sodium chloride solution was then removed from each well. The prepared chemical solutions were transferred to the corresponding wells of the biofilm plate. The plate was incubated for 24 hours at 28° C. The chemical solution was removed from the plate and an aliquot of resazurin solution was added to each well including column 12. The plate was kept on the lab bench for 24-48 hours. The plate was read at 540 nm and 620 nm. The difference in absorbance between the two wavelengths indicated the performance of the biocides.

[2] = tested on: viable bacteria in pool water and sand with established biofilm; assay: Remedial secondary screen: failed model pool, reduction of viable microorganisms in water and sand; type: cell-based; settings: FIGS. 1 and 2
Procedure: The secondary screen methodology is based upon a laboratory scale model of a swimming pool. A volume (800 ml) of synthetic swimming pool water (Calcium chloride dihydrate and Sodium hydrogen carbonate solution) is pumped through a body of swimming pool filter sand, by means of a peristaltic pump. The water temperature of each system is maintained in the range of 80-90° F. The systems are allowed to fail resulting in turbid water and heavy bacterial and fungal growth. This is to simulate a swimming pool that has been improperly maintained and has a problem. The purpose of this test is to evaluate the ability of a single biocide or combination of biocides with adjuvants for controlling the organisms present in both the water and the filter sand. Turbidity is not a key measure because the suspended solids are too fine for filtration so they would need to be removed with a separate chemical treatment such as flocculation. To the water, chemicals may be added as required. […] Hydrogen peroxide is added at concentrations of 0-27.5 ppm at the start of the experimentation. The secondary model system is challenged on a daily basis with eight species of bacteria and four species of fungi typically found in swimming pool water. These microorganisms include species of the fungi Paecilomyces and Trichoderma, and species of the bacteria Alcaligenes, Chryseobacterium and Sphingomonas. Each inoculation represents a total addition of 0.8×10^6 microorganisms per model apparatus. A volume (5 ml) of synthetic bather load is added to the system on a daily basis, as a nutrient source for the microorganisms present in the system. The bather load consists of carbon, nitrogen and macro/micro nutrient sources such as urea, albumin, creatinine, lactic acid, uric acid, glucuronic acid, sodium chloride, sodium sulfate, ammonium chloride, sodium bicarbonate, potassium phosphate potassium sulfate. […] The biocidal treatments are added and reduction of viable microorganisms is measured. The biocidal treatments may be added a second time.

[3] = tested on: Mold (fungi Paecilomyces and Trichoderma); assay: Prevention in test pools: water mold counts
Procedure: (§1) The test pools were run in the preventative mode to evaluate the effect of the sanitizers on the build up of bacteria and fungi in the system. The pool pumps were operated for a minimum of 8 hours per day. Each pool was challenged twice per week with eight species of bacteria and four species of fungi typically found in swimming pool water. These microorganisms include species of the fungi Paecilomyces and Trichoderma, and species of the bacteria Alcaligenes, Chryseobacterium and Sphingomonas. Each inoculation represents a total addition of 0.8×106 microorganisms per test pool. Synthetic bather load is added to the system on a weekly basis, as a nutrient source for the microorganisms present in the system. The bather load consists of carbon, nitrogen and macro/micro nutrient sources such as urea, albumin, creatinine, lactic acid, uric acid, glucuronic acid, sodium chloride, sodium sulfate, ammonium chloride, sodium bicarbonate, potassium phosphate potassium sulfate. The total number of viable bacteria and fungi present in each test pool was determined weekly, by conducting agar plate counts. Water samples are removed from each test pool, and using this sample a dilution series (in 10-1 steps, down to a 10-5 of the original sample) is prepared. Subsequently, an aliquot of each dilution is spread onto dry Cystine Lactose Electrolyte Deficient agar plates (for enumeration of bacteria) and dry Sabaroud-Dextrose agar plates (for enumeration of fungi). […] There were no chemical doses administered on Saturday or Sunday.

[4] = tested on: eight species of bacteria and four species of fungi typically found in swimming pool water; assay: Prevention in test pools: overall mold and bacterial control
Procedure: The test pools were run in the preventative mode to evaluate the effect of the sanitizers on the build up of bacteria and fungi in the system. The pool pumps were operated for a minimum of 8 hours per day. Each pool was challenged twice per week with eight species of bacteria and four species of fungi typically found in swimming pool water. These microorganisms include species of the fungi Paecilomyces and Trichoderma, and species of the bacteria Alcaligenes, Chryseobacterium and Sphingomonas. Each inoculation represents a total addition of 0.8×106 microorganisms per test pool. Synthetic bather load is added to the system on a weekly basis, as a nutrient source for the microorganisms present in the system. The bather load consists of carbon, nitrogen and macro/micro nutrient sources such as urea, albumin, creatinine, lactic acid, uric acid, glucuronic acid, sodium chloride, sodium sulfate, ammonium chloride, sodium bicarbonate, potassium phosphate potassium sulfate. The total number of viable bacteria and fungi present in each test pool was determined weekly, by conducting agar plate counts. Water samples are removed from each test pool, and using this sample a dilution series (in 10-1 steps, down to a 10-5 of the original sample) is prepared. […]

[5] = tested on: Bacteria (Alcaligenes, Chryseobacterium and Sphingomonas); assay: Prevention in test pools: water bacteria counts
Procedure: as §1

[6] = tested on: fungi Paecilomyces and Trichoderma; assay: Prevention secondary screen: fungal plate counts; type: cell-based; settings: Table 4
[7] = tested on: eight species of bacteria and four species of fungi typically found in swimming pool water; assay: Prevention secondary screen: laboratory scale model of a swimming pool, water clarity and hydrogen peroxide loss; type: cell-based; settings: for Number of Days of Clarity below 1.0 NTU / Number of Days of Clarity below 1.0 NTU with no Peroxide in System: Table 4
[8] = tested on: bacteria Alcaligenes, Chryseobacterium and Sphingomonas; assay: Prevention secondary screen: bacterial plate counts; type: cell-based; settings: Table 4
[9] = Pool 2, 1.0 ppm/day DBNPA, Low Baquacil (10-20 ppm)
[10] = Pool 2, 1.0 ppm/day DBNPA, Recommended Baquacil (30-50 ppm)
[11] = Pool 6, 0.5 ppm/day DBNPA, Low Baquacil (10-20 ppm)
[12] = Pool 6, Tablet 0.3 ppm/day DBNPA, Recommended Baquacil (30-50 ppm), with hydrogen peroxide doses
[13] = Pool 7, 2.0 ppm/day DBNPA, Low Baquacil (10-20 ppm)
[14] = Pool 7, 2.0 ppm/day DBNPA, Recommended Baquacil (30-50 ppm)
[15] = DBNPA 1 ppm Daily Additions, in the absence of PHMB

Molecule: CCCCCCCCCCCCN [Armeen 12D, Dodecyl amines]
- Efficacy level (Effective Concentration with 6 ppm of PHMB) [1]: >100 ppm

Molecule: N#CC(Br)(Br)C(N)=O [DBNPA, Dibromonitrilopropionamide]
- reduction of viable bacterial and fungal populations (remedial performance) ([2]; versus oxidizers and surfactants): significantly better than the oxidizers and surfactants
- log reduction of viable bacteria in the water ([2]; remedial treatment of failed model system): improved performance over the non-oxidizing surfactants
- log reduction of viable bacteria in the sand ([2]; remedial treatment of failed model system, established biofilm): superior
- Effective concentration of DBNPA in presence of PHMB and Adjuvant ([1]; Adjuvant DSPO 50 ppm): 1.6-3.13 ppm
- Effective concentration of DBNPA in presence of PHMB and Adjuvant ([1]; Adjuvant DTEA 50 ppm): 3.13-6.25 ppm
- Effective concentration of DBNPA in presence of PHMB and Adjuvant ([1]; Adjuvant Envirosweet 50 ppm): 6.25-12.5 ppm
- Effective concentration of DBNPA in presence of PHMB and Adjuvant ([1]; Adjuvant Geogard 111A 50 ppm): 6.25-12.5 ppm
- Effective concentration of DBNPA in presence of PHMB and Adjuvant ([1]; Adjuvant None): 3.13-6.25 ppm
- Effective concentration of DBNPA in presence of PHMB and Adjuvant ([1]; Adjuvant SADA 50 ppm): 1.5-3.13 ppm
- Effective concentration of DBNPA in presence of PHMB and Adjuvant ([1]; Adjuvant Span 60 50 ppm): 3.13-6.25 ppm
- Effective concentration of DBNPA in presence of PHMB and Adjuvant ([1]; Adjuvant Sulfamic acid 50 ppm): 0.8-1.6 ppm
- Effective concentration of DBNPA in presence of PHMB and Adjuvant ([1]; Adjuvant Surfonic L24-22 50 ppm): 3.13-6.25 ppm
- Effective concentration of DBNPA in presence of PHMB and Adjuvant ([1]; Adjuvant Triton BG10 50 ppm): 3.13-6.25 ppm
- Effective concentration of DBNPA in presence of PHMB and Adjuvant ([1]; Adjuvant Worm 50 ppm): 1.6-3.13 ppm
- Mold % 0 counts [3, 9]: 59.7%
- Mold % Counts >999 cfu/ml [3, 9]: 3.0%
- Mold Avg Counts [3, 9]: 4267 cfu/ml
- Mold % 0 counts [3, 10]: 69.0%
- Mold % Counts >999 cfu/ml [3, 10]: 0.0%
- Mold Avg Counts [3, 10]: 9.0 cfu/ml
- mold control compared to the other DBNPA pools ([3]; Pool 2 at low PHMB (1.0 ppm/day DBNPA)): had difficulty controlling mold
- Mold % 0 counts [3, 11]: 76.1%
- Mold % Counts >999 cfu/ml [3, 11]: 0.0%
- Mold Avg Counts [3, 11]: 19.0 cfu/ml
- Mold % 0 counts [3, 12]: 66.7%
- Mold % Counts >999 cfu/ml [3, 12]: 0.0%
- Mold Avg Counts [3, 12]: 8.0 cfu/ml
- Mold % 0 counts [3, 13]: 74.6%
- Mold % Counts >999 cfu/ml [3, 13]: 1.5%
- Mold Avg Counts [3, 13]: 620 cfu/ml
- Mold % 0 counts [3, 14]: 83.3%
- Mold % Counts >999 cfu/ml [3, 14]: 0.0%
- Mold Avg Counts [3, 14]: 4.0 cfu/ml
- average mold and bacterial counts when PHMB was increased to recommended ranges ([4]; all pools treated with DBNPA): significantly reduced
- improved performance over controls (average mold and bacterial counts) ([4]; all pools treated with DBNPA versus control pools): 2-4 logs
- Bacteria % 0 counts [5, 9]: 83.6%
- Bacteria % Counts >999 cfu/ml [5, 9]: 4.5%
- Bacteria Avg Counts [5, 9]: 561 cfu/ml
- Bacteria % 0 counts [5, 10]: 83.3%
- Bacteria % Counts >999 cfu/ml [5, 10]: 2.4%
- Bacteria Avg Counts [5, 10]: 74.0 cfu/ml
- Bacteria % 0 counts [5, 11]: 88%
- Bacteria % Counts >999 cfu/ml [5, 11]: 1.5%
- Bacteria Avg Counts [5, 11]: 150 cfu/ml
- Bacteria % 0 counts [5, 12]: 92.8%
- Bacteria % Counts >999 cfu/ml [5, 12]: 0.0%
- Bacteria Avg Counts [5, 12]: 5.0 cfu/ml
- Bacteria % 0 counts [5, 13]: 89.6%
- Bacteria % Counts >999 cfu/ml [5, 13]: 0.0%
- Bacteria Avg Counts [5, 13]: 22.0 cfu/ml
- Bacteria % 0 counts [5, 14]: 100%
- Bacteria % Counts >999 cfu/ml [5, 14]: 0.0%
- Bacteria Avg Counts [5, 14]: 0.0 cfu/ml
- Fungal Counts at Clarity of 1.0 NTU or above ([6]; DBNPA 0.25 ppm Daily Additions): 3.0 × 10^2 CFU/ml
- Fungal Counts at Clarity of 1.0 NTU or above ([6]; DBNPA 0.5 ppm Daily Additions): 2.0 × 10^2 CFU/ml
- Fungal Counts at Clarity of 1.0 NTU or above [6, 15]: 1.2 × 10^3 CFU/ml
- Number of Days of Clarity below 1.0 NTU ([7]; DBNPA 0.25 ppm Daily Additions): 47 days
- Number of Days of Clarity below 1.0 NTU with no Peroxide in System ([7]; DBNPA 0.25 ppm Daily Additions): 0 days
- Number of Days of Clarity below 1.0 NTU ([7]; DBNPA 0.5 ppm Daily Additions): 54 days
- Number of Days of Clarity below 1.0 NTU with no Peroxide in System ([7]; DBNPA 0.5 ppm Daily Additions): 19 days
- Number of Days of Clarity below 1.0 NTU [7, 15]: <12 days
- time to failure of the system (turbid water) versus PHMB alone or PHMB and DBNPA combinations ([7]; experiment 2, DBNPA added daily at 1 ppm in the absence of PHMB): failure of the system and development of turbid water significantly sooner
- performance at preventing turbid water and controlling bacteria and fungi, compared to PHMB alone ([7]; experiment one, DBNPA weekly addition with PHMB): did not perform as well as the PHMB only treatment
- Bacterial Counts at Clarity of 1.0 NTU or above ([8]; DBNPA 0.25 ppm Daily Additions): 3.0 × 10^7 CFU/ml
- Bacterial Counts at Clarity of 1.0 NTU or above ([8]; DBNPA 0.5 ppm Daily Additions): 1.3 × 10^8 CFU/ml
- Bacterial Counts at Clarity of 1.0 NTU or above [8, 15]: 9.9 × 10^7 CFU/ml

Molecule: O=C1c2ccccc2C(=O)c2ccccc21 [Envirosweet, 9,10 anthraquinone]
- Result (effect of adjuvant on DBNPA efficacy against biofilm) [1]: Negative impact

Molecule: CC(=O)C1C(=O)C=C(C)OC1=O (stereo not drawn) [Geogard 111A, Dehydroxyacetic acid (dehydroacetic acid)]
- Result (effect of adjuvant on DBNPA efficacy against biofilm) [1]: Negative impact

Molecule: CCCCCCCCCCCCCC(=O)O [Myristian, Mystic acid]
- Efficacy level (Effective Concentration with 6 ppm of PHMB) [1]: >100 ppm

Molecule: NS(=O)(=O)O [Sulfamic acid]
- Result (effect of adjuvant on DBNPA efficacy against biofilm) [1]: most significant effect on lowering the concentration of DBNPA

Molecule: Fatty alcohol polyglycol ether [Genapol C 050]
- Efficacy level (Effective Concentration with 6 ppm of PHMB) [1]: >100 ppm

Molecule: N-Alkyl (C12-16)-N,N-dimethyl-N-benzylammonium chloride [Uniquat QAC-50]
- Efficacy level (Effective Concentration with 6 ppm of PHMB) [1]: >100 ppm

Molecule: POE (2) stearyl ether [Brij ® 72]
- Efficacy level (Effective Concentration with 6 ppm of PHMB) [1]: >100 ppm

Molecule: Sorbitan monooleate [Alkamuls BR]
- Efficacy level (Effective Concentration with 6 ppm of PHMB) [1]: >100 ppm
